Reference: EP0689839A2, “Use of inhibitors of adenosine triphosphatase for the manufacture of a medicament for the treatment of disorders anociated with beta-amyloid peptide” (ELI LILLY AND COMPANY, priority 1994, dated 1996)
Where “and” joins values, the source holds several entries; their conditions need not be identical. Identical values can stand only once.

What was measured:
β-amyloid peptide [1] = assay: β-Amyloid Peptide Production Inhibition (Cellular Assay), ELISA of conditioned media; assay type: cell-based; conditions: normalized for cytotoxicity (MTT)
Description: (§1) Two cell lines (human kidney cell line 293 and Chinese hamster ovary cell line CHO) were stably transfected with the gene for APP751 containing the double mutation Lys₆₅₁-Met₆₅₂ to Asn₆₅₁-Leu₆₅₂ (APP-751 numbering) commonly called the Swedish mutation using the method described in Citron, et al., Nature (London), 360:672-674 (1992). The transfected cell lines were designated as 293 751 SWE and CHO 751 SWE, and were plated in Corning 96 well plates at 2.5 x 10⁴ or 1 x 10⁴ cells per well respectively in Dulbecco's […] essential media (DMEM) plus 10% fetal bovine serum. Following overnight incubation at 37°C in an incubator equilibrated with 10% carbon dioxide (CO₂) and humidified air, the media were removed and replaced with 200 µl per well of media containing a macrolide. After a two hour pretreatment period, the media were again removed and replaced with fresh media containing the test compound and the cells were incubated for an additional two hours.
After treatment, plates were centrifuged at 1200 x g for five minutes at room temperature to pellet cellular debris from the conditioned media. From each well, 100 µl of conditioned media were transferred into an ELISA plate precoated with antibody 266 against βamyloid peptide(13-28) (Seubert et al., supra.) and stored at 4°C overnight. An ELISA assay employing labelled antibody 6C6 (against β-amyloid peptide-1-16) was run the next day to measure the amount of β-amyloid peptide produced.
The results of the β-amyloid peptide ELISA were fit to a standard curve and expressed as ng/ml β-amyloid peptide. In order to normalize for cytotoxicity, these β-amyloid peptide results were divided by the MTT results and expressed as a percentage of the results from a drug-free control.

[2] = tested on: human fetal primary cortical cultures; assay: Cytotoxicity in human fetal primary cortical cultures; assay type: cell-based; conditions: 1 µM
β-amyloid peptide [3] = assay: β-amyloid peptide production in human fetal primary cortical cultures (ELISA); assay type: cell-based; conditions: 1 µM; twenty four hour-conditioned medium; endogenous amyloid precursor protein
Description: In order to better understand this phenomenon, human fetal primary cortical cultures, which secrete β-amyloid peptide as a result of endogenous amyloid precursor protein processing, were treated with 1 µM bafilomycin. Twenty four hour-conditioned medium was collected and evaluated using enzyme-linked immunosorbent assay (ELISA).

[4] = tested on: 293 751 SWE and CHO 751 SWE; assay: Cytotoxic effects / cellular viability by MTT in the cellular assay; assay type: cell-based
Description: as §1
Cytotoxic effects of the compounds were measured by a modification of the method of Hansen, et al., Journal of Immununological Methods, 119:203-210 (1989). […] The difference in the OD562nm and the OD650nm was measured in a UVmax microplate reader as an indicator of the cellular viability.

vacuolar ATPases = conditions: relative to other bafilomycins; cited from earlier work
[5] = 1 µg/ml, read-out: Percent Inhibition

CO/C1=C\C(C)=C\C(C)C(O)C(C)C/C(C)=C/C=C/C(OC)C(C(C)C(O)C(C)C2(O)CC(O)C(C)C(C(C)C)O2)OC1=O (stereo not shown) [Bafilomycin A₁, bafilomycin A₁]
Percent Inhibition (β-amyloid peptide [1]; 0.3 µM): 91 ± 1% and 92 ± 1% | inhibition at 0.3 µM (β-amyloid peptide [1]; 0.3 µM, read-out: Percent Inhibition): 90 ± 2%

CO/C1=C\C(C)=C\[C@@H](C)[C@@H](O)[C@@H](C)C/C(C)=C/C=C/[C@H](OC)[C@@H]([C@@H](C)[C@@H](O)[C@H](C)[C@@]2(O)C[C@@H](O)[C@H](C)[C@@H](C(C)C)O2)OC1=O [bafilomycin]
cytotoxicity [2]: no cytotoxicity was observed | inhibition of β-amyloid peptide production (β-amyloid peptide [3]): Greater than 75%

elaiophyline
Percent Inhibition (β-amyloid peptide [1]; 0.6 µM): 98 ± 2% | Percent Inhibition (β-amyloid peptide [1]; 1.2 µM): 100 ± 1% | Percent Inhibition (β-amyloid peptide [1]; 2.4 µM): 100 ± 2% | Percent Inhibition (β-amyloid peptide [1]; 4.9 µM): 100 ± 1% | Percent Inhibition (β-amyloid peptide [1]; 9.8 µM): 100 ± 1% and 131 ± 1%

CO/C1=C\C(C)=C\C(C)C(O)C(C)C/C(C)=C/C=C/C(OC)C(C(C)C(O)C(C)C(=O)/C=C/C(C)C(O)C(C)C)OC1=O (stereo not shown) [Bafilomycin D, bafilomycin D]
inhibition at 1 µg/mL (β-amyloid peptide [1]; [5]): 4 ± 3%

C/C=C/[C@H]1O[C@@](O)([C@@H](C)[C@H](O)[C@H](C)[C@H]2OC(=O)/C(OC)=C/C(C)=C/[C@@H](C)[C@@H](O)[C@@H](CC)[C@@H](O)[C@H](C)C/C(C)=C/C=C/[C@@H]2OC)C[C@@H](O[C@H]2C[C@@H](O)[C@H](OC(N)=O)[C@@H](C)O2)[C@@H]1C [Concanamycin A, concanamycin A]
Percent Inhibition (β-amyloid peptide [1]; 1.2 µM): 74 ± 4% | Percent Viability ([4]; 1.2 µM): 97%

bafilomycin A₁
Percent Viability ([4]; 0.3 µM): 112% and 99% and 102%

Bafilomycin B₁
Percent Inhibition (β-amyloid peptide [1]; 1 µg/ml): 87 ± 1%

bafilomycin D
poorer inhibitor of vacuolar ATPases than other bafilomycins, especially bafilomycin A1 (vacuolar ATPases): ~40 fold

CO/C1=C\C(C)=C\C(C)C(O)C(C)C/C(C)=C/C=C/C(OC)C(C(C)C(O)C(C)C2(O)CC(OC(=O)/C=C/C(=O)O)C(C)C(C(C)C)O2)OC1=O (stereo not shown) [Bafilomycin C₁]
inhibition at 1 µg/mL (β-amyloid peptide [1]; [5]): 90 ± 2%
